Measured values published in patent US20200197354A1, “METHODS, COMPOSITIONS AND CONTAINERS FOR REDUCING SOLID FORM QUERCETIN DEGRADATION AND 2,4,6-TRIHYDROXYBENZOIC ACID TOXIC BYPRODUCT THEREOF” (PUBLIC JOINT STOCK COMPANY "SCIENTIFICINDUSTRIALCENTRE …, priority 2018, published 2020).
≈ marks a conversion by molar mass, not a printed value.

Legend:
CDK4 = CDK4 (Homo sapiens, UniProt P11802); settings: cited from earlier work
Daphnia magna [1] = settings: cited from earlier work
[2] = test system: Pseudokirchneriella subcapitata; settings: cited from earlier work
CDK2 = CDK2 (Homo sapiens, UniProt P24941); settings: cited from earlier work
CDK6 = CDK6 (Homo sapiens, UniProt Q00534); settings: cited from earlier work
CDK6, sequence (Q00534 whole entry): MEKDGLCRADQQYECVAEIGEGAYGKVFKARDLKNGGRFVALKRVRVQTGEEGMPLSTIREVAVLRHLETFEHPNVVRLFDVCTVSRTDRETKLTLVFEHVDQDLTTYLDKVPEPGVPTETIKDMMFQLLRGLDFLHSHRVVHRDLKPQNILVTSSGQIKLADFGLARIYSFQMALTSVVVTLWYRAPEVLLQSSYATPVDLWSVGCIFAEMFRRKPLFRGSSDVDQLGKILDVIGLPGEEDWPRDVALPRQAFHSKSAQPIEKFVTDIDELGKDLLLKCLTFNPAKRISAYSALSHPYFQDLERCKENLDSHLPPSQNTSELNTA
CDK6, sequence (P24385 whole entry partner): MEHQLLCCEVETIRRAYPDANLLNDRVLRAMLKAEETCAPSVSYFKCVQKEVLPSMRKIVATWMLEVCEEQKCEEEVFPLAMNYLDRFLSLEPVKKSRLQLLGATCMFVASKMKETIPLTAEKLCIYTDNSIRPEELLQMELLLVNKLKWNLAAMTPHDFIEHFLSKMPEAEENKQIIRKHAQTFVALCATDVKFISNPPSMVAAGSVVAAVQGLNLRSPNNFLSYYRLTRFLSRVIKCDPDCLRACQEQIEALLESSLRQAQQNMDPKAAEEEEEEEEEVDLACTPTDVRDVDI

[3] = human
Description: Potential human toxicity of 2,4,6-THBA can be related to its toxicity based on studies with Daphnia.

HCT-116 human cells = settings: cited from earlier work
Daphnia magna [4] = settings: in vivo, 48 h
Protocol: Toxicity is determined using a Daphnia magna mobility assay as described (Kamaya et al., 2005). Neonates (<24 h old) from 2-3-week-old mothers are placed in a 50 ml glass beaker containing 40 ml of a test solution. All experiments for exposure and controls without chemicals are made in four replicates and performed at 21±0.3° C. under 16 h light: 8 h dark photoperiod. Immobility is used as the endpoint for determining acute toxicity; the daphnids showing no movement within 15 s after gentle stirring are defined to be immobile. After 24 and 48 h, the number of immobile daphnids is recorded to determine the concentration able to achieve 50% immobilization and it is indicated as EC50. The EC50 values are calculated by Probit analyses (USEPA, 1993), based on nominal concentrations and compared to similar experiments using benzoic acid and 2,4,6-THBA.

[5] = test system: Pseudokirchneriella subcapitata; settings: 48 h
Protocol: Toxicity is determined using green algae Pseudokirchneriella subcapitata growth rate assay as described (Lee and Chen, 2009). Algal inoculum are withdrawn from the chemostat operated under a steady state, and transferred into 300 mL BOD bottles, together with dilution water (with growth medium) and toxicants. The BOD bottles are filled completely, leaving no headspace. A water seal is provided to ensure a closed test environment. The bottles are then placed on an orbital shaker operated at 100 rpm. Temperature and light intensity are kept at 24±1©° C. and 65 microEm−2 s−1 (±10%), respectively. US EPA bottle medium, with no EDTA content is used for toxicity testing. A sample of lyophilized quercetin (10%)/PVP (90%) is resuspended in solution. Two response endpoints are used to evaluate the toxicity of the resuspended quercetin; the final yield and algal growth rate based on cell density counts. […] The initial inoculated cell density is 15,000 cells/mL and the duration of the test is 48 h.

CDK1 = CDK1 (Homo sapiens, UniProt P06493); settings: cited from earlier work
CDK1, sequence (P06493 whole entry, species assumed): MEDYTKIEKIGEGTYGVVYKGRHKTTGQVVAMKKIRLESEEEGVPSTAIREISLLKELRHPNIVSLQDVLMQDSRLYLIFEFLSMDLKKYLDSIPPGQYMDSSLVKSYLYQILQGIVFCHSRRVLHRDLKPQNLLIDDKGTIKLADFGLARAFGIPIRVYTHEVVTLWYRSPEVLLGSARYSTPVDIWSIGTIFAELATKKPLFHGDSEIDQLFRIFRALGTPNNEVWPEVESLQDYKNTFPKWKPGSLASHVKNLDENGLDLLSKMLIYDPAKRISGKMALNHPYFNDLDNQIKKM
CDK1, sequence (P14635 whole entry partner, species assumed): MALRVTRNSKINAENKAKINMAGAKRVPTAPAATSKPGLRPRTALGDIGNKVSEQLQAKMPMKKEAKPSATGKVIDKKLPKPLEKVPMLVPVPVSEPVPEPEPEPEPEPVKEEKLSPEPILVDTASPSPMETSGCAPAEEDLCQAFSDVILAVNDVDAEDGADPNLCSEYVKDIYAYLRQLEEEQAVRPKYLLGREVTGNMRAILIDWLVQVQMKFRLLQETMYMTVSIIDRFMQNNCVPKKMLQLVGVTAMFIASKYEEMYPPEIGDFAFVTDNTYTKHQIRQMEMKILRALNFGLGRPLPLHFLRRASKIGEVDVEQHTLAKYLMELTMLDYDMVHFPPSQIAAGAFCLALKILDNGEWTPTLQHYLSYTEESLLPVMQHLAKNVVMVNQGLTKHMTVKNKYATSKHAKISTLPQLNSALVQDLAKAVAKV

[6] = human oral exposure; cited from earlier work
[7] = humans, cited from earlier work

CDK4, sequence (P11802 whole entry): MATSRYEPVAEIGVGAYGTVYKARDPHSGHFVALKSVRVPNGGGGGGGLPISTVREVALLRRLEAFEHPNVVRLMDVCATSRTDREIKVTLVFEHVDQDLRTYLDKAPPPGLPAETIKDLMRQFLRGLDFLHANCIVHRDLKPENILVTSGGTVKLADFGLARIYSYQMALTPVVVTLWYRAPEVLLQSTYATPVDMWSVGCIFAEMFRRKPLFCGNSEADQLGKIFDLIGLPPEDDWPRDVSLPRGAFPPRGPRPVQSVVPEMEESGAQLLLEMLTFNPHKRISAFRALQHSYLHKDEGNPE
CDK4, sequence (P24385 whole entry partner): as the sequence (P24385 whole entry partner) above

O=C(O)c1c(O)cc(O)cc1O [2,4,6-THBA, 2,4,6-trihydroxybenzoic acid]
inhibitory effect on CDK4 (CDK4): strong inhibitory effect
EC50 at 48 h, mobility assay (Daphnia magna [1]): 1.7 mg/L (≈ 9.99 µM)
LC50 in 48 h, immobilization test (Daphnia magna [1]): 1.7 mg/L (≈ 9.99 µM)
EC50, suppression of growth [2]: 0.546 mg/L
inhibitory effect on CDK2 (CDK2): strong inhibitory effect
inhibitory effect on CDK6 (CDK6): strong inhibitory effect
RfD estimated from Daphnia EC50 [3]: 0.02 mg/kg/day
RfD-based toxicity relative to benzoic acid [3]: more than 50 times
RfD-based toxicity relative to quercetin [3]: 700 times
cytotoxicity compared to other salicylic acid metabolites (HCT-116 human cells): more cytotoxic
toxicity relative to benzoic acid (Daphnia magna [4]): about 500 times
toxicity relative to benzoic acid and its other derivatives [5]: 70 times
inhibitory effect on CDK1 (CDK1): strong inhibitory effect

O=C(O)c1ccccc1 [benzoic acid]
EC50 at 48 h, mobility assay (Daphnia magna [1]): 860 mg/L (≈ 7040 µM)
RfD / toxicity in humans [6]: 1 mg/kg/day
EC50, suppression of growth [2]: 36 mg/L

O=c1c(O)c(-c2ccc(O)c(O)c2)oc2cc(O)cc(O)c12 [quercetin, 2-(3,4-dihydroxyphenyl)-3,5,7-trihydroxy-4H-chromen-4-one]
elimination half-life ([7]; after ingestion in foods or supplements): 1 to 2 h
bioavailability of quercetin [7]: 0-50%
RfD / toxicity in humans [6]: more than 15 mg/kg/day
